What was measured:
B9 (HRAS Q61L) cell line = test: B9 P-ERK cell activation assay (AlphaScreen); assay type: cell-based, mouse; conditions: Mus musculus; P-ERK cell activation, B9; numeric bounds; read-out: Cell activity (EC50 μM) B9_pERK
In short: (§1)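 Mouse B9 (HRAS-driven skin SCC) or human IPC-298 melanoma cells treated with an 8-point compound titration for one hour at 37° C., then lysed. ERK1/2 phosphorylation at Thr202/Tyr204 read by AlphaScreen with total-ERK and phospho-ERK antibodies.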

BRAF V600E = target: T1, BRAF V600E (Homo sapiens, UniProt P15056, V600E); test: BRAF V600E biochemical kinase activity assay (AlphaScreen, biotin-MEK1 substrate); conditions: BRAF V600E biochemical inhibitory activity
T1 construct: purchased Upstate Biotechnology

[1] = system: A375 (BRAF V600E) cell line; test: A375 P-ERK inhibition assay (AlphaScreen); assay type: cell-based, human; conditions: Homo sapiens, A-375; A375_P-ERK
In short: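 A375 cells treated with 8-point compound titration for 1 h at 37° C, then lysed. ERK1/2 Thr202/Tyr204 phosphorylation measured by AlphaScreen, using biotinylated total-ERK antibody on donor beads and phospho-specific antibody on acceptor beads.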

[2] = system: IPC-298 (NRAS Q61L) cell line; test: IPC-298 P-ERK cell activation assay (AlphaScreen); assay type: cell-based, human; conditions: Homo sapiens; P-ERK cell activation, IPC-298; numeric bounds; read-out: Cell activity (EC50 μM) IPC-298_P-ERK
In short: as §1

T1 sequence (P15056 whole entry V600E): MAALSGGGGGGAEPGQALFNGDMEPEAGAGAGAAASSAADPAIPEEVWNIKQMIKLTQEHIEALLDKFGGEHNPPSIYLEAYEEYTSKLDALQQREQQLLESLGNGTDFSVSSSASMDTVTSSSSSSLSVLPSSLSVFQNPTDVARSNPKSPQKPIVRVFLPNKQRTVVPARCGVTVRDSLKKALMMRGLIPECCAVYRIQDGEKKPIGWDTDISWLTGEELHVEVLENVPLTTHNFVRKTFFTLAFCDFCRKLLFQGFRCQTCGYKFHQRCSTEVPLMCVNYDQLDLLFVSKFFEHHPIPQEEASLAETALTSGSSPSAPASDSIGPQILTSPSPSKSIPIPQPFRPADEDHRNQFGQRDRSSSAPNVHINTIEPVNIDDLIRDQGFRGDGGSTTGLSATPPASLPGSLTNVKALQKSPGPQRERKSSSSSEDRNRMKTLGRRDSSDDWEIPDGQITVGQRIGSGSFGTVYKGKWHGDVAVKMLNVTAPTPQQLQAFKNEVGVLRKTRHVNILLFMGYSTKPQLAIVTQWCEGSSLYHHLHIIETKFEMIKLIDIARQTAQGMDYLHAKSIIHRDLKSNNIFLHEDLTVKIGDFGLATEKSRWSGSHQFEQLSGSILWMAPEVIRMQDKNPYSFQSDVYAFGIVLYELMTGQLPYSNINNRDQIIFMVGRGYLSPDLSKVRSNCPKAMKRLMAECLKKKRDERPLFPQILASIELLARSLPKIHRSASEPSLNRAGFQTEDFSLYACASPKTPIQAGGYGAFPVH

SMILES	EC50 (B9 (HRAS Q61L) cell line)	IC50 (BRAF V600E)	IC50 [1]	EC50 [2]
CC(C)S(=O)(=O)Nc1ccc(F)c(C(=O)c2c[nH]c3nccc(C#N)c23)c1F [P-2017, N-[3-(4-cyano-1H-pyrrolo[2,3-b]pyridine-3-carbonyl)-2,4-difluoro-phenyl]propane-2-sulfonamide]	> 10 µM	0.0001 to 1 µM	0.0001 to 1 µM	> 10 µM
CCN(C)S(=O)(=O)Nc1cccc(C(=O)c2c[nH]c3ncnc(NC4CCC4)c23)c1F [P-2072, 4-(cyclobutylamino)-5-[3-[[ethyl(methyl)sulfamoyl]amino]-2-fluoro-benzoyl]-7H-pyrrolo[2,3-d]pyrimidine]	> 10 µM	0.0001 to 1 µM	0.0001 to 1 µM	> 10 µM
O=C(c1cc(Cl)cc(NS(=O)(=O)N2CCCC2)c1F)c1c[nH]c2ncc(-c3cnc(C4CC4)nc3)cc12 [P-2180, N-(5-chloro-3-(5-(2-cyclopropylpyrimidin-5-yl)-1H-pyrrolo[2,3-b]pyridine-3-carbonyl)-2-fluorophenyl)pyrrolidine-1-sulfonamide]	> 10 µM	0.0001 to 1 µM	< 1 µM	> 10 µM
C[C@@H](Nc1ncnc2[nH]cc(C(=O)c3cccc(NS(=O)(=O)N4CCCC4)c3F)c12)C1CC1 [P-2094, N-[3-[4-[[(1R)-1-cyclopropylethyl]amino]-7H-pyrrolo[2,3-d]pyrimidine-5-carbonyl]-2-fluoro-phenyl]pyrrolidine-1-sulfonamide]	> 10 µM	0.0001 to 1 µM	0.0001 to 1 µM	> 10 µM
O=C(c1c(F)ccc(NS(=O)(=O)C2CCCCC2)c1F)c1c[nH]c2ncnc(NCC3CC3)c12 [P-2049, N-[3-[4-(cyclopropylmethylamino)-7H-pyrrolo[2,3-d]pyrimidine-5-carbonyl]-2,4-difluoro-phenyl]cyclohexanesulfonamide]	> 10 µM	0.0001 to 1 µM	0.0001 to 1 µM	> 10 µM
CCN(CC)S(=O)(=O)Nc1cc(Cl)cc(-c2cn(C(C)C)nc2-c2ccnc(NC[C@H](C)NC(=O)OC)n2)c1F [P-2165, methyl N-[(1S)-2-[[4-[4-[5-chloro-3-(diethylsulfamoylamino)-2-fluoro-phenyl]-1-isopropyl-pyrazol-3-yl]pyrimidin-2-yl]amino]-1-methyl-ethyl]carbamate]	> 10 µM	0.0001 to 1 µM	0.0001 to 1 µM	> 10 µM
O=C(c1c(F)ccc(NS(=O)(=O)C2CCC2)c1F)c1c[nH]c2ncncc12 [P-2030, N-[2,4-difluoro-3-(7H-pyrrolo[2,3-d]pyrimidine-5-carbonyl)phenyl]cyclobutanesulfonamide]	> 10 µM	1 to 10 µM	1 to 10 µM	> 10 µM
CCN(C)S(=O)(=O)Nc1cccc(-c2nc(C(C)(C)C)sc2-c2ccnc(OC)n2)c1F [P-2088, 2-tert-butyl-4-[3-[[ethyl(methyl)sulfamoyl]amino]-2-fluoro-phenyl]-5-(2-methoxypyrimidin-4-yl)thiazole]	> 10 µM	0.0001 to 1 µM	0.0001 to 1 µM	> 10 µM
CCN(C)S(=O)(=O)Nc1cccc(C(=O)c2c[nH]c3ncnc(NC(C)C)c23)c1F [P-2067, 5-[3-[[ethyl(methyl)sulfamoyl]amino]-2-fluoro-benzoyl]-4-(isopropylamino)-7H-pyrrolo[2,3-d]pyrimidine]	> 10 µM	0.0001 to 1 µM	0.0001 to 1 µM	> 10 µM
Cc1nc2c(-c3sc(C(C)(C)C)nc3-c3cccc(NS(=O)(=O)N4CCCC4)c3F)ncnc2[nH]1 [P-2124, N-[3-[2-tert-butyl-5-(8-methyl-9H-purin-6-yl)thiazol-4-yl]-2-fluoro-phenyl]pyrrolidine-1-sulfonamide]	> 10 µM	0.0001 to 1 µM	0.0001 to 1 µM	> 1 µM
CC(C)Nc1ncnc2[nH]cc(C(=O)c3c(F)ccc(NS(=O)(=O)C4CCCCC4)c3F)c12 [P-2039, N-[2,4-difluoro-3-[4-(isopropylamino)-7H-pyrrolo[2,3-d]pyrimidine-5-carbonyl]phenyl]cyclohexanesulfonamide]	> 10 µM	0.0001 to 1 µM	0.0001 to 1 µM	> 10 µM
CCN(C)S(=O)(=O)Nc1ccc(F)c(C(=O)c2c[nH]c3ncnc(N[C@H](C)C4CC4)c23)c1F [P-2118, 4-[[(1R)-1-cyclopropylethyl]amino]-5-[3-[[ethyl(methyl)sulfamoyl]amino]-2,6-difluoro-benzoyl]-7H-pyrrolo[2,3-d]pyrimidine]	> 10 µM	0.0001 to 1 µM	0.0001 to 1 µM	> 10 µM

The next lines start with the values.

EC50 (B9 (HRAS Q61L) cell line)	IC50 (BRAF V600E)	IC50 [1]	EC50 [2]	SMILES
> 10 µM	0.0001 to 1 µM	0.0001 to 1 µM	> 10 µM	CCCN(C)S(=O)(=O)Nc1cccc(C(=O)c2c[nH]c3ncnc(C)c23)c1F [P-2086, 5-[2-fluoro-3-[[methyl(propyl)sulfamoyl]amino]benzoyl]-4-methyl-7H-pyrrolo[2,3-d]pyrimidine]
> 10 µM	0.0001 to 1 µM	0.0001 to 1 µM	> 10 µM	CC(C)(C)c1nc(-c2cccc(NS(=O)(=O)N3CCCC3)c2F)c(-c2ncnc3[nH]ccc23)s1 [P-2122, N-[3-[2-tert-butyl-5-(7H-pyrrolo[2,3-d]pyrimidin-4-yl)thiazol-4-yl]-2-fluoro-phenyl]pyrrolidine-1-sulfonamide]
> 10 µM	0.0001 to 1 µM	0.0001 to 1 µM	> 10 µM	COc1ncnc2[nH]cc(C(=O)c3cccc(NS(=O)(=O)N4CCCC4)c3F)c12 [P-2084, N-[2-fluoro-3-(4-methoxy-7H-pyrrolo[2,3-d]pyrimidine-5-carbonyl)phenyl]pyrrolidine-1-sulfonamide]
> 10 µM	0.0001 to 1 µM	0.0001 to 1 µM	> 1 µM	CN(C)S(=O)(=O)Nc1cc(F)cc(C(=O)c2c[nH]c3ncc(-c4cnc(C5CC5)nc4)cc23)c1F [P-2173, 5-(2-cyclopropylpyrimidin-5-yl)-3-[3-(dimethylsulfamoylamino)-2,5-difluoro-benzoyl]-1H-pyrrolo[2,3-b]pyridine]
> 10 µM	0.0001 to 1 µM	0.0001 to 1 µM	> 10 µM	CCC(C)S(=O)(=O)Nc1ccc(F)c(C(=O)c2c[nH]c3nccc(OC)c23)c1F (stereo not shown) [Compound P-2006, N-[2,4-difluoro-3-(4-methoxy-1H-pyrrolo[2,3-b]pyridine-3-carbonyl)phenyl]butane-2-sulfonamide]
> 10 µM	0.0001 to 1 µM	0.0001 to 1 µM	> 10 µM	O=C(c1cccc(NS(=O)(=O)N2CCCC2)c1F)c1c[nH]c2ncnc(NC3CC3)c12 [P-2070, N-[3-[4-(cyclopropylamino)-7H-pyrrolo[2,3-d]pyrimidine-5-carbonyl]-2-fluoro-phenyl]pyrrolidine-1-sulfonamide]
> 10 µM	0.0001 to 1 µM	0.0001 to 1 µM	> 10 µM	CN(C)S(=O)(=O)Nc1ccc(F)c(C(=O)c2c[nH]c3nccc(Cl)c23)c1F [Compound P-2007, 4-chloro-3-[3-(dimethylsulfamoylamino)-2,6-difluoro-benzoyl]-1H-pyrrolo[2,3-b]pyridine]
> 10 µM	0.0001 to 1 µM	1 to 10 µM	> 10 µM	COc1ccnc2[nH]cc(C(=O)c3c(F)ccc(NS(=O)(=O)C4CCC4)c3F)c12 [Compound P-2010, N-[2,4-difluoro-3-(4-methoxy-1H-pyrrolo[2,3-b]pyridine-3-carbonyl)phenyl]cyclobutanesulfonamide]
> 1 µM	0.0001 to 1 µM	0.0001 to 1 µM	> 1 µM	CCN(C)S(=O)(=O)Nc1cccc(-c2nc(C(C)(C)C)sc2-c2ccnc(N)n2)c1F [P-2089, 5-(2-aminopyrimidin-4-yl)-2-tert-butyl-4-[3-[[ethyl(methyl)sulfamoyl]amino]-2-fluoro-phenyl]thiazole]
> 1 µM	0.0001 to 1 µM	0.0001 to 1 µM	> 1 µM	CN(C)S(=O)(=O)Nc1cccc(-c2nc(C(C)(C)C)sc2-c2ccnc(N)n2)c1F [P-2093, 5-(2-aminopyrimidin-4-yl)-2-tert-butyl-4-[3-(dimethylsulfamoylamino)-2-fluoro-phenyl]thiazole]
> 10 µM	0.0001 to 1 µM	0.0001 to 1 µM	> 10 µM	CCN(C)S(=O)(=O)Nc1cccc(C(=O)c2c[nH]c3ncnc(C4CC4)c23)c1F [P-2091, 4-cyclopropyl-5-[3-[[ethyl(methyl)sulfamoyl]amino]-2-fluoro-benzoyl]-7H-pyrrolo[2,3-d]pyrimidine]
> 10 µM	0.0001 to 1 µM	0.0001 to 1 µM	> 10 µM	O=C(c1c(F)ccc(NS(=O)(=O)C2CCCCC2)c1F)c1c[nH]c2nccc(Cl)c12 [P-2014, N-[3-(4-chloro-1H-pyrrolo[2,3-b]pyridine-3-carbonyl)-2,4-difluoro-phenyl]cyclohexanesulfonamide]
> 10 µM	0.0001 to 1 µM	0.0001 to 1 µM	> 10 µM	CCN(CC)S(=O)(=O)Nc1ccc(F)c(C(=O)c2c[nH]c3ncnc(NCC4CC4)c23)c1F [P-2052, 4-(cyclopropylmethylamino)-5-[3-(diethylsulfamoylamino)-2,6-difluoro-benzoyl]-7H-pyrrolo[2,3-d]pyrimidine]

Reference: patent publication US10421761B2, “Compounds for kinase modulation, and indications therefor” (Plexxikon Inc., priority 2013, dated 2019)
